Experimental data as given in patent publication US20230174584A1, “Antibiotic Compounds” (priority 2019, published 2023).
In brackets after ≈: the same amount, converted by molar mass.

Legend:
NRS51 = experiment: MIC assay, VISA and VRSA panel; format: cell-based, Staphylococcus aureus
Protocol: (§1) The antibacterial activity of the compounds was tested against a panel of bacteria, including Gram-positive bacteria (S. aureus ATCC29213, S. aureus USA300, S. aureus LIM-2, NR-45881, S. aureus HIP13419, NR-46413, E. faecium E155, E. faecium E7314, E. faecium E980, E. faecalis E1246, E. faecalis E7406 and S. pneumonia 153). The antibacterial activity of the compounds was further tested against S. aureus NY-155, NR-46236, S. aureus HIP12864, NR-46074, S. aureus 880 (BR-VRSA), NR-49120, E. faecalis E1246, E. faecalis E7604, as well as some Gram-negative bacteria (Escherichia coli and Klebsiella pneumoniae). Minimum inhibitory concentrations (MICs) in μg/mL were performed according to the CLSI guidelines. From glycerol stocks, bacterial strains were cultured on blood agar plates and incubated at 37° C. for 18 h. A single colony was transferred to tryptic soy broth (TSB) with 0.002% polysorbate 80 (p80). For the Enterococcus, VISA and VRSA strains, the cultures were grown at 37° C. until the optical density of the suspension reached a level equivalent to the 0.5 McFarland standard. The bacterial suspensions were diluted in TSB with 0.002% p80 to reach a bacterial cell density of 10^6 CFU/mL. In case of the other (vancomycin-sensitive) S. aureus strains, the direct colony suspension method was used. For these strains, after transfer of the colonies to TSB with 0.002% p80, they were immediately diluted to 10^6 CFU/mL, instead of incubated prior to this dilution. In the case of S. pneumonia, direct colony suspension was used by immediately suspending multiple colonies from fresh blood agar plates in TSB+0.002% p80 to an OD600 of 0.5 and subsequent dilution to 10^6 CFU mL^−1 in TSB+0.002% p80+5% lysed horse blood. Antibiotic dilutions for this strains were also made in TSB+0.002% p80+5% lysed horse blood. Both agar and microplates containing S. pneumonia were incubated at 37° C. with 5% CO2 for 24 h with constant shaking (600 rpm). […] The cultures were grown to exponential phase (OD600=0.5) at 37° C. […] In polypropylene 96-well microtiter plates, test compounds were added in biological triplicates and serial diluted 2-fold by transfer and mixing from one well to the next to achieve a final volume of 50 μL per well. An equal volume of bacterial suspension (10^6 CFU mL^−1) was added to the wells. The plates were sealed with breathable membranes and incubated at 37° C. for 24 h with constant shaking (600 rpm). In polypropylene microtiter plates, 100 μL of the test compounds was added to the first row in biological triplicates, and 50 μL of media was added to the other wells. The compounds were subjected to serial dilution by transfer and mixing of 50 μL from one well to the next. Subsequently, 50 μL of bacterial suspension (10^6 CFU/mL) was added to the wells. The plates were sealed with breathable membranes and incubated at 37° C. for 24 h with constant shaking (600 rpm). Positive growth control consisted of wells with bacterial suspension and without antibiotic. Negative growth control consisted of solely media without bacterial suspension or antibiotic. The MICs were determined from the median of a minimum of triplicates.

VRSA3b = experiment: MIC assay, VISA and VRSA panel; format: cell-based, Staphylococcus aureus
Protocol: as §1

NRS18 = experiment: MIC assay, VISA and VRSA panel; format: cell-based, Staphylococcus aureus
Protocol: as §1

VRS3a = experiment: MIC assay, VISA and VRSA panel; format: cell-based, Staphylococcus aureus
Protocol: as §1

VRS7 = experiment: MIC assay, VISA and VRSA panel; format: cell-based, Staphylococcus aureus
Protocol: as §1

VRS11b = experiment: MIC assay, VISA and VRSA panel; format: cell-based, Staphylococcus aureus
Protocol: as §1

NRS52 = experiment: MIC assay, VISA and VRSA panel; format: cell-based, Staphylococcus aureus
Protocol: as §1

VRS9 = experiment: MIC assay, VISA and VRSA panel; format: cell-based, Staphylococcus aureus
Protocol: as §1

VRS2 = experiment: MIC assay, VISA and VRSA panel; format: cell-based, Staphylococcus aureus
Protocol: as §1

VRS8 = experiment: MIC assay, VISA and VRSA panel; format: cell-based, Staphylococcus aureus
Protocol: as §1

NRS17 = experiment: MIC assay, VISA and VRSA panel; format: cell-based, Staphylococcus aureus
Protocol: as §1

NRS63SH = experiment: MIC assay, VISA and VRSA panel; format: cell-based, Staphylococcus aureus
Protocol: as §1

VRS4 = experiment: MIC assay, VISA and VRSA panel; format: cell-based, Staphylococcus aureus
Protocol: as §1

[1] = system: HepG2 human hepatocellular carcinoma cells; experiment: Cytotoxicity assay for HepG2 (MTT); format: cell-based; conditions: MTT, HepG2, 24 h, 10% FBS
Protocol: (§2) Mammalian cytotoxicity assays were performed by Cyprotex. Cytotoxicity was assessed using the MTT assay. Briefly, HepG2 human hepatocellular carcinoma cells (100 μL per well) were plated on black-walled clear-bottomed polystyrene 96-well tissue culture treated plates 24 h prior to dosing the cells. The cells were dosed with test compound (dissolved in 0.5% DMSO in growth media containing 10% FBS) at a range of concentrations (0.04 μM, 0.1 μM, 0.4 μM, 1 μM, 4 μM, 10 μM, 40 μM, 100 μM). After 23 h period the cells were loaded with the MTT dye (yellow; 3-(4,5-dimethyl-2-thiazolyl)-2,5-diphenyl-2H-tetrazolium bromide) followed by an additional 1 h incubation (resulting in a total incubation time with antibiotics of 24 h). Subsequently, the plates are dried and solubilized in DMSO followed by scanning at 570 nm using a microplate absorbance reader. Cell viability is determined by conversion of the soluble MTT to insoluble formazan (purple) by mitochondrial […] in live cells. Production of formazan indicates […]. Carbonyl cyanide 3-chlorophenylhydrazone is used as no response control and chlorpromazine is used as control known to be cytotoxic. Solvent control wells (0.5% DMSO in growth media containing 10% FBS) are then used to determine significance limits for wells that have a greater than expected fraction of low or high responders. The minimum effective concentration is determined from the lowest concentration whose mean value exceeds the significance level, provided either a clear dose-response relationship is observed, or at least two consecutive concentration points are above the significance level. AC50 values are also determined provided a clear dose-response relationship is observed. Experiment was performed in triplicates.

[2] = Cytotoxicity assay for HepG2 (MTT); format: cell-based, human; conditions: human; MTT, HepG2, 24 h, 10% FBS, n = 3; read-out: AC50
Protocol: as §2

Compound | MIC (NRS51; strain NRS51) | MIC (VRSA3b; strain VRSA3b) | MIC (NRS18; strain NRS18) | MIC (VRS3a; strain VRS3a) | MIC (VRS7; strain VRS7) | MIC (VRS11b; strain VRS11b) | MIC (NRS51; Staphylococcus aureus, NRS51) | MIC (VRSA3b; Staphylococcus aureus) | MIC (NRS18; Staphylococcus aureus, NRS18) | MIC (VRS3a; Staphylococcus aureus) | MIC (VRS7; Staphylococcus aureus) | MIC (VRS11b; Staphylococcus aureus) | MIC (NRS52; Staphylococcus aureus, NRS52) | MIC (VRS9; Staphylococcus aureus) | MIC (VRS2; Staphylococcus aureus) | MIC (VRS8; Staphylococcus aureus) | MIC (NRS17; Staphylococcus aureus, NRS17) | MIC (NRS63SH; Staphylococcus aureus) | MIC (VRS4; Staphylococcus aureus) | AC50 at 24 h [2] | other results
CCCCCCCNC(N)=Nc1ccc(CN[C@@]2(C)C[C@H](O[C@H]3[C@H](Oc4c5cc6cc4Oc4ccc(cc4Cl)[C@@H](O)[C@@H](NC(=O)[C@@H](CC(C)C)NC)C(=O)N[C@@H](CC(N)=O)C(=O)N[C@H]6C(=O)N[C@H]4C(=O)N[C@H](C(=O)N[C@H](C(=O)O)c6cc(O)cc(O)c6-c6cc4ccc6O)[C@H](O)c4ccc(c(Cl)c4)O5)O[C@H](CO)[C@@H](O)[C@@H]3O)O[C@@H](C)[C@H]2O)cc1 [Compound 5] | 0.031 µg/mL (≈ 0.0183 µM) | 1 µg/mL (≈ 0.59 µM) | 0.125 µg/mL (≈ 0.0738 µM) | 0.25 µg/mL (≈ 0.148 µM) | 4 µg/mL (≈ 2.36 µM) | 16 µg/mL (≈ 9.44 µM) |  |  |  |  |  |  |  |  |  |  |  |  |  |  | MIC (NRS52; strain NRS52): 0.031 µg/mL (≈ 0.0183 µM); MIC (VRS9; strain VRS9): 16 µg/mL (≈ 9.44 µM); MIC (VRS2; strain VRS2): 0.25 µg/mL (≈ 0.148 µM); MIC (VRS8; strain VRS8): 16 µg/mL (≈ 9.44 µM); MIC (NRS17; strain NRS17): 0.25 µg/mL (≈ 0.148 µM); MIC (NRS63SH; strain NRS63SH): 8 µg/mL (≈ 4.72 µM); MIC (VRS4; strain VRS4): 8 µg/mL (≈ 4.72 µM); AC50 ([1]; n = 3): > 100 µM
CCCCCCN(CCCCCC)C(N)=Nc1ccc(CN[C@@]2(C)C[C@H](O[C@H]3[C@H](Oc4c5cc6cc4Oc4ccc(cc4Cl)[C@@H](O)[C@@H](NC(=O)[C@@H](CC(C)C)NC)C(=O)N[C@@H](CC(N)=O)C(=O)N[C@H]6C(=O)N[C@H]4C(=O)N[C@H](C(=O)N[C@H](C(=O)O)c6cc(O)cc(O)c6-c6cc4ccc6O)[C@H](O)c4ccc(c(Cl)c4)O5)O[C@H](CO)[C@@H](O)[C@@H]3O)O[C@@H](C)[C@H]2O)cc1 [Compound 12] | 0.125 µg/mL (≈ 0.0708 µM) | 0.25 µg/mL (≈ 0.142 µM) | 0.25 µg/mL (≈ 0.142 µM) | <0.016 µg/mL | 2 µg/mL (≈ 1.13 µM) | 4 µg/mL (≈ 2.27 µM) |  |  |  |  |  |  |  |  |  |  |  |  |  |  | MIC (NRS52; strain NRS52): 0.031 µg/mL (≈ 0.0176 µM); MIC (VRS9; strain VRS9): 4 µg/mL (≈ 2.27 µM); MIC (VRS2; strain VRS2): <0.016 µg/mL; MIC (VRS8; strain VRS8): 4 µg/mL (≈ 2.27 µM); MIC (NRS17; strain NRS17): 0.5 µg/mL (≈ 0.283 µM); MIC (NRS63SH; strain NRS63SH): 2 µg/mL (≈ 1.13 µM); MIC (VRS4; strain VRS4): 2 µg/mL (≈ 1.13 µM); AC50 ([1]; n = 3): > 100 µM
CN[C@H](CC(C)C)C(=O)N[C@H]1C(=O)N[C@@H](CC(N)=O)C(=O)N[C@H]2C(=O)N[C@H]3C(=O)N[C@H](C(=O)N[C@H](C(=O)O)c4cc(O)cc(O)c4-c4cc3ccc4O)[C@H](O[C@H]3C[C@](C)(N)[C@@H](O)[C@H](C)O3)c3ccc(c(Cl)c3)Oc3cc2cc(c3O[C@@H]2O[C@H](CO)[C@@H](O)[C@H](O)[C@H]2O[C@H]2C[C@](C)(NCc3ccc(-c4ccc(Cl)cc4)cc3)[C@@H](O)[C@H](C)O2)Oc2ccc(cc2Cl)[C@H]1O [Oritavancin] |  |  |  |  |  |  | 0.5 µg/mL (≈ 0.279 µM) | 0.25 µg/mL (≈ 0.139 µM) | 1 µg/mL (≈ 0.558 µM) | 0.5 µg/mL (≈ 0.279 µM) | 0.5 µg/mL (≈ 0.279 µM) | 1 µg/mL (≈ 0.558 µM) | 0.5 µg/mL (≈ 0.279 µM) | 2 µg/mL (≈ 1.12 µM) | 0.25 µg/mL (≈ 0.139 µM) | 1 µg/mL (≈ 0.558 µM) | 4 µg/mL (≈ 2.23 µM) | 1 µg/mL (≈ 0.558 µM) | 1 µg/mL (≈ 0.558 µM) | > 100 µM | Direction of response (↑↓) [1]: ↓; MEC ([1]; n = 3): 76.5 µM
CCCCCCCCCCNCCN[C@@]1(C)C[C@H](O[C@H]2[C@H](Oc3c4cc5cc3Oc3ccc(cc3Cl)[C@@H](O)[C@@H](NC(=O)[C@@H](CC(C)C)NC)C(=O)N[C@@H](CC(N)=O)C(=O)N[C@H]5C(=O)N[C@H]3C(=O)N[C@H](C(=O)N[C@H](C(=O)O)c5cc(O)c(CNCP(=O)(O)O)c(O)c5-c5cc3ccc5O)[C@H](O)c3ccc(c(Cl)c3)O4)O[C@H](CO)[C@@H](O)[C@@H]2O)O[C@@H](C)[C@H]1O [Telavancin, reference compound] |  |  |  |  |  |  | 0.125 µg/mL (≈ 0.0712 µM) | 4 µg/mL (≈ 2.28 µM) | 0.25 µg/mL (≈ 0.142 µM) | 1 µg/mL (≈ 0.57 µM) | 4 µg/mL (≈ 2.28 µM) | 8 µg/mL (≈ 4.56 µM) | 0.25 µg/mL (≈ 0.142 µM) | 16 µg/mL (≈ 9.11 µM) | 2 µg/mL (≈ 1.14 µM) | 16 µg/mL (≈ 9.11 µM) | 1 µg/mL (≈ 0.57 µM) | 8 µg/mL (≈ 4.56 µM) | 4 µg/mL (≈ 2.28 µM) | > 100 µM | 
CN[C@H](CC(C)C)C(=O)N[C@H]1C(=O)N[C@@H](CC(N)=O)C(=O)N[C@H]2C(=O)N[C@H]3C(=O)N[C@H](C(=O)N[C@H](C(=O)O)c4cc(O)cc(O)c4-c4cc3ccc4O)[C@H](O)c3ccc(c(Cl)c3)Oc3cc2cc(c3O[C@@H]2O[C@H](CO)[C@@H](O)[C@H](O)[C@H]2O[C@H]2C[C@](C)(N)[C@H](O)[C@H](C)O2)Oc2ccc(cc2Cl)[C@H]1O [Vancomycin, reference compound] |  |  |  |  |  |  | 4 µg/mL (≈ 2.76 µM) | > 128 µg/mL | 8 µg/mL (≈ 5.52 µM) | 64 µg/mL (≈ 44.2 µM) | > 128 µg/mL | > 128 µg/mL | 4 µg/mL (≈ 2.76 µM) | > 128 µg/mL | 32 µg/mL (≈ 22.1 µM) | > 128 µg/mL | 8 µg/mL (≈ 5.52 µM) | > 128 µg/mL | > 128 µg/mL | > 100 µM | 
